This note sets out measurements from ChEMBL document CHEMBL1201862, “PubChem BioAssay data set” (2004).

Some test systems named below: NCI-H460; SK-MEL-5; SF-268; HOP-92; SK-MEL-2; RPMI-8226; EKVX; UACC-257; MDA-MB-231; OVCAR-4; SN12C; HCC 2998; 786-0; COLO 205; NCI-H522; LOX IMVI; SW-620; OVCAR-3; SF-295; HL-60.
Assay in all cases: NCI anticancer screen, dose series, 48 h

Molecules are shown by their SMILES.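 A five-concentration, 48-hour dose response in 96-well plates underlies each endpoint, interpolated linearly between surrounding concentrations. At the GI50, growth is halved.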 The source made the active and inactive calls. Rule as the data show it: active = GI50 up to about 1.1 µM and inactive = higher.

In the case of `CC(C)/C(Cl)=N\OC(=O)NNc1ccccc1`, the GI50 with NCI-H460 is < 0.01 µM (active); with SK-MEL-5, 0.0966 µM (active); in the assay with SF-268, > 91.4 µM (inactive); in the assay with HOP-92, 16.3 µM (inactive); in the assay on SK-MEL-2, > 32.1 µM (inactive); with RPMI-8226, < 0.0247 µM (active). The GI50 with EKVX is 15.3 µM (inactive); with UACC-257, 1.3 µM (inactive); in the assay on MDA-MB-231, 41.9 µM (inactive); with OVCAR-4 it was 7.48 µM (inactive); with SN12C, > 48.1 µM (inactive); in the assay on HCC 2998 it was 44.9 µM (inactive). The GI50 with 786-0 was 29 µM (inactive); in the assay on COLO 205, 0.119 µM (active); in the assay with NCI-H522 it was 12.6 µM (inactive); in the assay with LOX IMVI it was 12.6 µM (inactive); in the assay with SW-620, 6.92 µM (inactive); in the assay on OVCAR-3 it was > 35.8 µM (inactive).
As to `OC1C#CCSCC#C/C=C\1` (stereo not drawn), the GI50 in the assay with NCI-H460 is 13.7 µM (inactive); in the assay with SF-268 it was > 100 µM (inactive); in the assay on HOP-92 it was 62.2 µM (inactive); in the assay on SK-MEL-2, > 100 µM (inactive); in the assay with EKVX, > 100 µM (inactive); in the assay on UACC-257, 30.9 µM (inactive). Further, the GI50 in the assay on MDA-MB-231 is > 100 µM (inactive); in the assay on OVCAR-4, > 100 µM (inactive); in the assay on SF-295, > 100 µM (inactive); with SN12C it was 94 µM (inactive); in the assay with HCC 2998 it was > 100 µM (inactive); with 786-0, 3.58 µM (inactive). The GI50 with COLO 205 was 15.2 µM (inactive); in the assay with NCI-H522, 17.8 µM (inactive); in the assay on HL-60 it was 23.6 µM (inactive); with LOX IMVI, 45.2 µM (inactive); in the assay on SW-620, 18.4 µM (inactive); in the assay with OVCAR-3, > 100 µM (inactive).
For `COc1ccc2c(=O)cc(-c3ccc(OC)c(OC)c3OC)oc2c1`, the GI50 in the assay with NCI-H460 was 99.3 µM (inactive); in the assay on SK-MEL-5, 49 µM (inactive); with SF-268 it was > 60.1 µM (inactive); with HOP-92 it was 33.1 µM (inactive); in the assay with RPMI-8226 it was 16.9 µM (inactive); with EKVX, > 64.3 µM (inactive). Also, the GI50 in the assay with UACC-257 is > 100 µM (inactive); in the assay with MDA-MB-231 it was 38.7 µM (inactive); in the assay with OVCAR-4, > 93.3 µM (inactive); in the assay with SF-295, 48.1 µM (inactive); in the assay with SN12C, 61.4 µM (inactive); in the assay with HCC 2998 it was > 63.8 µM (inactive). For the same molecule, the GI50 in the assay with 786-0 is > 100 µM (inactive); with COLO 205, > 71.8 µM (inactive); with NCI-H522 it was > 39.8 µM (inactive); in the assay with HL-60, 30.1 µM (inactive); in the assay on LOX IMVI it was > 75.7 µM (inactive); with SW-620 it was > 100 µM (inactive). For the same molecule, the GI50 in the assay with OVCAR-3 is > 44.4 µM (inactive).
`CC1CN(CCO)CC(C)O1` (stereo not drawn): the GI50 in the assay with NCI-H460, in the assay with SK-MEL-5, in the assay with SF-268, in the assay on HOP-92, with SK-MEL-2 and with RPMI-8226 was > 100 µM (inactive) each time. Further, the GI50 with EKVX, in the assay with UACC-257, with MDA-MB-231, in the assay on OVCAR-4, with SF-295 and with SN12C was > 100 µM (inactive) in each case. Further, the GI50 in the assay on HCC 2998, with 786-0, in the assay with COLO 205, in the assay with NCI-H522, in the assay with HL-60 and in the assay on SW-620 was > 100 µM (inactive) throughout. In the assay on OVCAR-3, the GI50 is > 100 µM (inactive).
`CSc1c(C(=O)Nc2ccc(Cl)cc2)c(N)nn1-c1ccccc1`: the GI50 was > 59.2 µM (inactive) with NCI-H460; > 100 µM (inactive) in the assay with SK-MEL-5; > 100 µM (inactive) in the assay on SF-268; > 100 µM (inactive) with HOP-92; > 100 µM (inactive) in the assay on SK-MEL-2; > 100 µM (inactive) in the assay on RPMI-8226. Besides, the GI50 was > 100 µM (inactive) in the assay with EKVX; > 100 µM (inactive) in the assay with UACC-257; 40.8 µM (inactive) with MDA-MB-231; > 100 µM (inactive) in the assay with SF-295; > 100 µM (inactive) in the assay with SN12C; > 100 µM (inactive) in the assay with HCC 2998. The GI50 in the assay on 786-0 is 9.75 µM (inactive); in the assay on COLO 205, > 100 µM (inactive); with NCI-H522, > 100 µM (inactive); in the assay with HL-60, > 100 µM (inactive); in the assay on LOX IMVI it was > 100 µM (inactive); in the assay on SW-620 it was > 100 µM (inactive). For the same molecule, in the assay with OVCAR-3, the GI50 is > 100 µM (inactive).
For the molecule `CCCc1nc2c(n1CC)C(=O)c1ccccc1C2=O`, the GI50 in the assay with NCI-H460 is 37.2 µM (inactive); in the assay on SK-MEL-5, 29.8 µM (inactive); with SF-268, 45.5 µM (inactive); in the assay on HOP-92, > 10 µM (inactive); in the assay on RPMI-8226, 31.3 µM (inactive); with UACC-257 it was 18 µM (inactive). Besides, the GI50 with MDA-MB-231 was 79.6 µM (inactive); with OVCAR-4 it was 32.1 µM (inactive); with SF-295, 56 µM (inactive); with SN12C, 30.5 µM (inactive); in the assay on HCC 2998, 30.8 µM (inactive); in the assay with 786-0 it was > 100 µM (inactive). The GI50 in the assay on COLO 205 is 35.5 µM (inactive); with NCI-H522, 24.3 µM (inactive); in the assay on HL-60, 44.4 µM (inactive); in the assay on SW-620, 39.1 µM (inactive); in the assay on OVCAR-3 it was 32.5 µM (inactive).
For `O=C(Nn1c(-c2ccccc2)nc2ccccc2c1=O)c1ccc(Cl)cc1`, the GI50 in the assay on NCI-H460 was 59.6 µM (inactive); in the assay on SK-MEL-5, 23.4 µM (inactive); in the assay with SF-268, > 100 µM (inactive); with HOP-92 it was 75.3 µM (inactive); in the assay with RPMI-8226 it was 76 µM (inactive); in the assay with EKVX, > 100 µM (inactive). The GI50 with UACC-257 is > 100 µM (inactive); in the assay with MDA-MB-231 it was > 100 µM (inactive); with OVCAR-4 it was 56.5 µM (inactive); with SF-295 it was > 100 µM (inactive); in the assay on SN12C, > 100 µM (inactive); with HCC 2998 it was > 100 µM (inactive). The GI50 in the assay on 786-0 was > 100 µM (inactive); with NCI-H522, 50.6 µM (inactive); with HL-60 it was > 100 µM (inactive); in the assay on LOX IMVI, > 100 µM (inactive); in the assay on SW-620, > 100 µM (inactive); in the assay on OVCAR-3, 91.6 µM (inactive).
Turning to `CC12CCC(C1)C(C)(C)C2OC(=O)c1ccccc1N` (stereo not drawn), the GI50 in the assay on NCI-H460 was 15.7 µM (inactive); in the assay on SK-MEL-5, 17 µM (inactive); in the assay with SF-268 it was 16.8 µM (inactive); with HOP-92 it was 11.8 µM (inactive); in the assay on SK-MEL-2, 14.8 µM (inactive); in the assay with RPMI-8226, 2.9 µM (inactive). Also, the GI50 in the assay on EKVX is 15.6 µM (inactive); in the assay on UACC-257 it was 15.4 µM (inactive); in the assay with MDA-MB-231, 15.9 µM (inactive); with SF-295, 17.3 µM (inactive); in the assay on SN12C, 17.6 µM (inactive); in the assay with HCC 2998, 13.3 µM (inactive). Further, the GI50 was 16.6 µM (inactive) in the assay on 786-0; 15.4 µM (inactive) with COLO 205; 10.1 µM (inactive) in the assay on NCI-H522; 12.9 µM (inactive) in the assay with HL-60; 18.2 µM (inactive) with LOX IMVI; 15.5 µM (inactive) with SW-620. For the same molecule, the GI50 in the assay on OVCAR-3 was 15.2 µM (inactive).
Turning to `OCCOCn1cc(Cn2ncc3c(SCc4ccccc4)ncnc32)nn1`, the GI50 in the assay on NCI-H460 is 38.3 µM (inactive); with SK-MEL-5, 30 µM (inactive); with SF-268 it was 75.5 µM (inactive); in the assay with HOP-92, 99.8 µM (inactive); with SK-MEL-2, 37.2 µM (inactive); in the assay with EKVX, 38 µM (inactive). Also, the GI50 in the assay on UACC-257 was 53.7 µM (inactive); in the assay with MDA-MB-231, 88.1 µM (inactive); with OVCAR-4, 59.3 µM (inactive); with SF-295, 45.1 µM (inactive); in the assay on SN12C it was 64.9 µM (inactive); in the assay with HCC 2998, 51.1 µM (inactive). Moreover, the GI50 in the assay with 786-0 was 48.4 µM (inactive); in the assay with COLO 205 it was 31.3 µM (inactive); with NCI-H522, 25.4 µM (inactive); with HL-60, 13.7 µM (inactive); with LOX IMVI, 61.7 µM (inactive); in the assay with SW-620, 26.7 µM (inactive). Further, the GI50 in the assay with OVCAR-3 was 44.8 µM (inactive).
Turning to `C=CCOC(=O)NC1C(OC(C)[C@@H](NC(=O)OCc2ccccc2)C(=O)OC(C)(C)C)OC(COC(C)=O)C(OC(C)=O)C1OC(C)=O` (stereo partly drawn), the GI50 was > 100 µM (inactive) in the assay with NCI-H460; > 100 µM (inactive) in the assay with SK-MEL-5; > 100 µM (inactive) in the assay with SF-268; > 100 µM (inactive) with HOP-92; 62.4 µM (inactive) with RPMI-8226; > 100 µM (inactive) in the assay on EKVX. Also, the GI50 with UACC-257 was > 100 µM (inactive); in the assay with MDA-MB-231, 15.1 µM (inactive); in the assay on OVCAR-4 it was > 100 µM (inactive); in the assay on SF-295, > 100 µM (inactive); in the assay with SN12C, 43.4 µM (inactive); in the assay with HCC 2998 it was > 100 µM (inactive). Further, the GI50 was > 100 µM (inactive) in the assay with 786-0; > 100 µM (inactive) in the assay on COLO 205; 63.8 µM (inactive) in the assay on NCI-H522; 69.5 µM (inactive) in the assay on HL-60; 86.7 µM (inactive) in the assay on LOX IMVI; > 100 µM (inactive) with SW-620. For the same molecule, the GI50 in the assay with OVCAR-3 was > 100 µM (inactive).
As to `CC(=O)NC1=C(NCCCl)C(=O)c2ccccc2C1=O`, the GI50 in the assay on NCI-H460 is 32.1 µM (inactive); with SK-MEL-5, 16.9 µM (inactive); in the assay on SF-268, 59.8 µM (inactive); with HOP-92, 56.6 µM (inactive); in the assay with RPMI-8226, 40.9 µM (inactive); in the assay with EKVX it was > 100 µM (inactive). Moreover, the GI50 was 15 µM (inactive) with UACC-257; 36.7 µM (inactive) in the assay on MDA-MB-231; 44.6 µM (inactive) with OVCAR-4; 37.4 µM (inactive) in the assay on SF-295; 34.7 µM (inactive) with SN12C; 32.7 µM (inactive) in the assay on HCC 2998. The GI50 was 50.5 µM (inactive) in the assay with 786-0; 28.4 µM (inactive) in the assay on COLO 205; 20.5 µM (inactive) in the assay on NCI-H522; > 10 µM (inactive) with HL-60; 25.4 µM (inactive) with SW-620; 49.5 µM (inactive) in the assay with OVCAR-3.
